Measurements taken from patent publication US10858360B2, “Tricyclic gyrase inhibitors” (priority 2011, dated 2020).
Converted amounts (≈) assume the structure as drawn.

Tests used:
Assay type in all cases: cell-based
[1] = system: F. tularensis holarctica LVS; experiment: microbe, parasite or virus in culture; conditions: for MIC: Francisella tularensis, read-out: MIC Ft; for MIC Ft: Ft = F. tularensis, strain not given
Y. pestis CO92 pgm- = experiment: microbe, parasite or virus in culture; conditions: for MIC: Yersinia pestis, CO92PGM, read-out: MIC Yp; for MIC Yp: Yp = Y. pestis
[2] = system: K. pneumoniae ATCC 700603; experiment: MIC, K. pneumoniae ATCC 700603; conditions: for MIC: Klebsiella pneumoniae, ATCC700603, read-out: MIC Kpn; for MIC Kpn: Kpn = K. pneumoniae
[3] = system: B. thailandensis ATCC E264; experiment: microbe, parasite or virus in culture; conditions: for MIC: Burkholderia thailandensis, ATCCE264, read-out: MIC Bt
A. baumannii ATCC 19606 = experiment: MIC, A. baumannii ATCC 19606; conditions: strain not given; for MIC: Acinetobacter baumannii, ATCC19606, Ab = A. baumannii
P. aeruginosa ATCC 15692 = experiment: MIC, P. aeruginosa ATCC 15692; conditions: for MIC: Pseudomonas aeruginosa, ATCC15692, Pa = P. aeruginosa
S. aureus ATCC 13709 = experiment: MIC, S. aureus ATCC 13709 (Alamar Blue broth microdilution); conditions: for MIC: Staphylococcus aureus
S. pneumoniae ATCC 51916 = experiment: MIC, S. pneumoniae ATCC 51916; conditions: for MIC: Streptococcus pneumoniae, ATCC51916, Spn = S. pneumoniae
E. coli ATCC 25922 = experiment: MIC, E. coli ATCC 25922; conditions: for MIC: Escherichia coli
[4] = ATCC13709, S. aureus, Alamar Blue read after overnight incubation at 35° C.
[5] = ATCC25922, E. coli, Alamar Blue read after overnight incubation at 35° C.
[6] = ATCC25922, Ec = E. coli, strain not given
[7] = S. aureus, Alamar Blue read after overnight incubation at 35° C.
[8] = E. coli, Alamar Blue read after overnight incubation at 35° C.

SMILES	MIC [2] [µg/mL]	MIC (A. baumannii ATCC 19606) [µg/mL]	MIC (P. aeruginosa ATCC 15692) [µg/mL]	MIC (S. aureus ATCC 13709; [4]) [µg/mL]	MIC (S. aureus ATCC 13709; ATCC13709, Sa = S. aureus) [µg/mL]	MIC (S. pneumoniae ATCC 51916) [µg/mL]	MIC (E. coli ATCC 25922; [5]) [µg/mL]	MIC (E. coli ATCC 25922; [6]) [µg/mL]	MIC Ft [1] [µg/mL]	MIC Yp (Y. pestis CO92 pgm-) [µg/mL]	MIC Kpn [2] [µg/mL]	MIC Bt [3] [µg/mL]	MIC Ab (A. baumannii ATCC 19606) [µg/mL]	MIC Pa (P. aeruginosa ATCC 15692) [µg/mL]	MIC Sa (S. aureus ATCC 13709; [7]) [µg/mL]	MIC Sa (S. aureus ATCC 13709; Sa = S. aureus) [µg/mL]	MIC Spn (S. pneumoniae ATCC 51916) [µg/mL]	MIC Ec (E. coli ATCC 25922; [8]) [µg/mL]	MIC Ec (E. coli ATCC 25922; Ec = E. coli, strain not given) [µg/mL]	other results
CNc1cc(F)cc2c1[nH]c1nc(Oc3cnc4cccnc4c3)nc(N3CC4C(N)C4C3)c12 (stereo not shown) [4.035]	2 (≈ 4.38 µM)	≤ 0.5	4 (≈ 8.76 µM)	≤ 0.5	≤ 0.5	≤ 0.5	≤ 0.5	≤ 0.5												MIC [1]: 1 µg/mL (≈ 2.19 µM); MIC (Y. pestis CO92 pgm-): ≤ 0.5 µg/mL; MIC [3]: ≤ 0.5 µg/mL
CNc1cc(F)cc2c1[nH]c1nc(Oc3cnc4cccnc4c3)nc(N3CC4(CCC4N)C3)c12 (stereo not shown) [4.045]									2 (≈ 4.25 µM)	≤0.5	8 (≈ 17 µM)	1 (≈ 2.13 µM)	≤0.5	4 (≈ 8.5 µM)	≤0.5	≤0.5	≤0.5	≤0.5	≤0.5	
CNc1cc(F)cc2c1[nH]c1nc(Oc3cnc(C)nc3)nc(N3CCC4(CC4N)C3)c12 (stereo not shown) [4.066]	2 (≈ 4.6 µM)	≤ 0.5	2 (≈ 4.6 µM)	≤ 0.5	≤ 0.5	≤ 0.5	≤ 0.5	≤ 0.5												MIC [1]: 1 µg/mL (≈ 2.3 µM); MIC (Y. pestis CO92 pgm-): ≤ 0.5 µg/mL; MIC [3]: ≤ 0.5 µg/mL
CNc1cc(F)cc2c1[nH]c1nc(Oc3cnc(C)nc3)nc(N3CC(N)C4(CC4)C3)c12 (stereo not shown) [4.069]									2 (≈ 4.6 µM)	≤0.5	2 (≈ 4.6 µM)	≤0.5	≤0.5	4 (≈ 9.21 µM)		≤0.5	≤0.5		≤0.5	
CNc1cc(F)cc2c1[nH]c1nc(Oc3cnc(C)nc3)nc(N3CC4C(N)C4C3)c12 (stereo not shown) [4.073]									1 (≈ 2.38 µM)	≤0.5	2 (≈ 4.76 µM)	≤0.5	≤0.5	4 (≈ 9.51 µM)	≤0.5	≤0.5	≤0.5	≤0.5	≤0.5	
CNc1cc(F)cc2c1[nH]c1nc(Oc3cnc(C)nc3)nc(N3CC4CCC(N)C4C3)c12 (stereo not shown) [4.076]									2 (≈ 4.46 µM)	≤0.5	4 (≈ 8.92 µM)	1 (≈ 2.23 µM)	≤0.5	4 (≈ 8.92 µM)	≤0.5	≤0.5	≤0.5	≤0.5	≤0.5	
CNc1cc(F)cc2c1[nH]c1nc(Oc3cnc(C)nc3)nc(N3CC4CCCNC4C3)c12 (stereo not shown) [4.079]									4 (≈ 8.92 µM)	≤0.5	8 (≈ 17.8 µM)	1 (≈ 2.23 µM)	≤0.5	4 (≈ 8.92 µM)	≤0.5	≤0.5	≤0.5	≤0.5	≤0.5	
CNc1cc(F)cc2c1[nH]c1nc(Oc3cnc(C)nc3)nc(N3CC4CC(N)C4C3)c12 (stereo not shown) [4.084]									≤0.5	≤0.5	4 (≈ 9.21 µM)	≤0.5	≤0.5	1 (≈ 2.3 µM)	≤0.5	≤0.5	≤0.5	≤0.5	≤0.5	
CNc1cc(F)cc2c1[nH]c1nc(Oc3cnc(C)nc3)nc(N3C[C@H]4CCN[C@H]4C3)c12 [4.103]									1 (≈ 2.3 µM)	≤0.5	2 (≈ 4.6 µM)	≤0.5	≤0.5	2 (≈ 4.6 µM)	≤0.5	≤0.5	≤0.5	≤0.5	≤0.5	
CNc1cc(F)cc2c1[nH]c1nc(Oc3cnc(C)nc3)nc(N3CC4(CCC4N)C3)c12 (stereo not shown) [4.105]									1 (≈ 2.3 µM)	≤0.5	2 (≈ 4.6 µM)	≤0.5	≤0.5	1 (≈ 2.3 µM)		≤0.5	≤0.5		≤0.5	
CNc1cc(F)cc2c1[nH]c1nc(Oc3cnc(C)nc3)nc(N3CCC4(CCC4N)C3)c12 (stereo not shown) [4.117]									1 (≈ 2.23 µM)	≤0.5	2 (≈ 4.46 µM)	≤0.5	≤0.5	1 (≈ 2.23 µM)	≤0.5	≤0.5	≤0.5	≤0.5	≤0.5	
CNc1cc(F)cc2c1[nH]c1nc(Oc3cnc(C)nc3)nc(N3CC4CC3C[C@@H]4N)c12 (stereo partly shown) [4.131]									≤0.5	≤0.5	2 (≈ 4.6 µM)	≤0.5	≤0.5	1 (≈ 2.3 µM)	≤0.5	≤0.5	≤0.5	≤0.5	≤0.5	
CNc1cc(F)cc2c1[nH]c1nc(Oc3cnc(C)nc3)nc(N3C[C@@H]4[C@H](N)C[C@]4(C)C3)c12 [4.151]	1 (≈ 2.23 µM)	≤ 0.5	1 (≈ 2.23 µM)	≤ 0.5	≤ 0.5	≤ 0.5	≤ 0.5	≤ 0.5												
CNc1cc(F)cc2c1[nH]c1nc(Oc3cnc(C)nc3)nc(N3CC4NCCC4(C)C3)c12 (stereo not shown) [4.157]	4 (≈ 8.92 µM)	≤ 0.5	8 (≈ 17.8 µM)	≤ 0.5	≤ 0.5	≤ 0.5	≤ 0.5	≤ 0.5												
CNc1cc(F)cc2c1[nH]c1nc(Oc3cnc(C)nc3)nc(N3C[C@@H]4[C@H](C3)[C@@]4(N)C(N)=O)c12 [4.160]	> 16	> 16	> 16	≤ 0.5	≤ 0.5	≤ 0.5	2 (≈ 4.32 µM)	2 (≈ 4.32 µM)												
CNc1cc(F)cc2c1[nH]c1nc(Oc3ccc4cncnc4c3)nc(N3CC4CC(N)C4C3)c12 (stereo not shown) [4.365]									1 (≈ 2.13 µM)	≤0.5	4 (≈ 8.5 µM)	≤0.5	≤0.5	1 (≈ 2.13 µM)	≤0.5	≤0.5	≤0.5	≤0.5	≤0.5	
CNc1cc(F)cc2c1[nH]c1nc(Oc3cnc(C(C)O)nc3)nc(N3CC4C[C@@H](N)C4C3)c12 (stereo partly shown) [4.409]	4 (≈ 8.61 µM)	1 (≈ 2.15 µM)	1 (≈ 2.15 µM)	≤ 0.5	≤ 0.5	≤ 0.5	≤ 0.5	≤ 0.5												
CNc1cc(F)cc2c1[nH]c1nc(Oc3cnc(C(C)O)nc3)nc(N3CC4(CC[C@H]4N)C3)c12 (stereo partly shown) [4.410]	2 (≈ 4.31 µM)	2 (≈ 4.31 µM)	1 (≈ 2.15 µM)	≤ 0.5	≤ 0.5	≤ 0.5	≤ 0.5	≤ 0.5												
CNc1cc(F)cc2c1[nH]c1nc(Oc3ccc(C#N)nc3)nc(N3C[C@H]4C[C@@H]3C[C@H]4N)c12 [4.434]	1 (≈ 2.25 µM)	≤ 0.5	1 (≈ 2.25 µM)	≤ 0.5	≤ 0.5	≤ 0.5	≤ 0.5	≤ 0.5												
CNc1cc(F)c(F)c2c1[nH]c1nc(Oc3cnc(C)nc3)nc(N3CC4(CCC4N)C3)c12 (stereo not shown) [5.01]											1 (≈ 2.21 µM)		≤0.5	≤0.5		≤0.5	≤0.5		≤0.5	
CNc1cc(F)c(F)c2c1[nH]c1nc(Oc3cnc(N)nc3)nc(N3CC(N)C4(CC4)C3)c12 (stereo not shown) [5.11]											4 (≈ 8.82 µM)		2 (≈ 4.41 µM)	4 (≈ 8.82 µM)	≤0.5	≤0.5	≤0.5	≤0.5	≤0.5	
CNc1cc(F)c(C)c2c1[nH]c1nc(Oc3cnc(C)nc3)nc(N3CC4C[C@@H]3C[C@H]4N)c12 [6.28]	2 (≈ 4.46 µM)	≤ 0.5	1 (≈ 2.23 µM)	≤ 0.5	≤ 0.5	≤ 0.5	≤ 0.5	≤ 0.5												
CNc1cc(F)c(C)c2c1[nH]c1nc(Oc3cnc(C)nc3)nc(N3C[C@H](N)C4(CC4)C3)c12 [6.29]	2 (≈ 4.46 µM)	≤ 0.5	2 (≈ 4.46 µM)	≤ 0.5	≤ 0.5	≤ 0.5	≤ 0.5	≤ 0.5												
